# According to US20240082221A1, “COMPOSITIONS AND METHODS FOR THE IDENTIFICATION OF COMPOUNDS THAT PROTECT AGAINST LIPOFUSCIN CYTOTOXICITY” (priority 2021, published 2024):
# Test system: LLO-induced atypical necroptosis
# Assay: LLO-induced atypical necroptosis, protection assay
# Type: cell-based
row,Structure (SMILES),protection against LLO-induced atypical necroptosis
1,"N=C1S/C(=C\c2cn[nH]c2-c2ccc(F)cc2)C(=O)N1c1nccs1 [Nec7, Necrostatin 7]",preventable
2,[O-][n+]1cccc(/C(Cl)=N/OC[C@H](O)CN2CCCCC2)c1 [arimoclomol],preventable
